According to the supplement of paper PMC10307832:

Assays:
Experiment in all cases: relative viability (nuclei count vs DMSO), 5 days (fraction); higher = more cells survive
17-AAG + Palbociclib = compound: C=CCNC1=C2C[C@@H](C)C[C@H](OC)[C@H](O)[C@@H](C)/C=C(\C)[C@H](OC(N)=O)[C@@H](OC)/C=C\C=C(/C)C(=O)NC(=CC1=O)C2=O [17-AAG] + CC(=O)c1c(C)c2cnc(Nc3ccc(N4CCNCC4)cn3)nc2n(C2CCCC2)c1=O [Palbociclib] (partner 0.5 µM)
Outline: (§1)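 The day after seeding in 1536-well plates, lung cancer cell lines were treated by pin tool with a single drug, or with a fixed anchor-drug dose together with five library-drug doses (not always all listed) in √10 steps. After 5 days, a combined fix-and-stain solution (final 0.05% Triton X-100, 1% formaldehyde, 1 ug/ml Hoechst) was added. Nuclei counted on 4× images gave relative viability as treated counts over vehicle counts, reported as the median of duplicate plates.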

17-AAG + Vorinostat = compound: C=CCNC1=C2C[C@@H](C)C[C@H](OC)[C@H](O)[C@@H](C)/C=C(\C)[C@H](OC(N)=O)[C@@H](OC)/C=C\C=C(/C)C(=O)NC(=CC1=O)C2=O [17-AAG] + O=C(CCCCCCC(=O)Nc1ccccc1)NO [Vorinostat] (partner 1 µM)
Outline: as §1

17-AAG + Dasatinib = compound: C=CCNC1=C2C[C@@H](C)C[C@H](OC)[C@H](O)[C@@H](C)/C=C(\C)[C@H](OC(N)=O)[C@@H](OC)/C=C\C=C(/C)C(=O)NC(=CC1=O)C2=O [17-AAG] + Cc1nc(Nc2ncc(C(=O)Nc3c(C)cccc3Cl)s2)cc(N2CCN(CCO)CC2)n1 [Dasatinib] (partner 0.075 µM)
Outline: as §1

17-AAG + Pemetrexed = compound: C=CCNC1=C2C[C@@H](C)C[C@H](OC)[C@H](O)[C@@H](C)/C=C(\C)[C@H](OC(N)=O)[C@@H](OC)/C=C\C=C(/C)C(=O)NC(=CC1=O)C2=O [17-AAG] + Nc1nc2[nH]cc(CCc3ccc(C(=O)N[C@@H](CCC(=O)O)C(=O)O)cc3)c2c(=O)[nH]1 [Pemetrexed] (partner 0.2 µM)
Outline: as §1

| Cell Line | relative viability (17-AAG + Palbociclib; first compound 0.00128 µM) | relative viability (17-AAG + Palbociclib; first compound 0.004048 µM) | relative viability (17-AAG + Palbociclib; first compound 0.0128 µM) | relative viability (17-AAG + Palbociclib; first compound 0.04048 µM) | relative viability (17-AAG + Palbociclib; first compound 0.128 µM) | relative viability (17-AAG + Vorinostat; first compound 0.00128 µM) | relative viability (17-AAG + Vorinostat; first compound 0.004048 µM) | relative viability (17-AAG + Vorinostat; first compound 0.0128 µM) | relative viability (17-AAG + Vorinostat; first compound 0.04048 µM) | relative viability (17-AAG + Vorinostat; first compound 0.128 µM) | relative viability (17-AAG + Dasatinib; first compound 0.00128 µM) | relative viability (17-AAG + Dasatinib; first compound 0.004048 µM) | relative viability (17-AAG + Dasatinib; first compound 0.0128 µM) | relative viability (17-AAG + Dasatinib; first compound 0.04048 µM) | relative viability (17-AAG + Dasatinib; first compound 0.128 µM) | relative viability (17-AAG + Pemetrexed; first compound 0.00128 µM) | relative viability (17-AAG + Pemetrexed; first compound 0.004048 µM) | relative viability (17-AAG + Pemetrexed; first compound 0.0128 µM) | relative viability (17-AAG + Pemetrexed; first compound 0.04048 µM) | relative viability (17-AAG + Pemetrexed; first compound 0.128 µM) |
| --- | --- | --- | --- | --- | --- | --- | --- | --- | --- | --- | --- | --- | --- | --- | --- | --- | --- | --- | --- | --- |
| NCI-H2405 | 0.541 | 0.525 | 0.364 | 0.219 | 0.174 | 1.08 | 0.994 | 0.391 | 0.209 | 0.193 | 0.195 | 0.173 | 0.167 | 0.128 | 0.149 | 1.05 | 0.956 | 0.267 | 0.186 | 0.156 |
| NCI-H3122 | 0.194 | 0.155 | 0.19 | 0.0911 | 0.117 | 0.934 | 0.816 | 0.219 | 0.111 | 0.0733 | 0.854 | 0.754 | 0.0689 | 0.0681 | 0.0701 | 0.198 | 0.191 | 0.127 | 0.122 | 0.11 |
| PC-3 [JPC-3] | 0.575 | 0.57 | 0.551 | 0.463 | 0.528 | 1 | 0.819 | 0.795 | 0.503 | 0.8 | 1.02 | 0.966 | 1 | – | 0.815 | 1.23 | 1.12 | 1.18 | 0.491 | 0.85 |
| PC-14 | 0.471 | 0.241 | 0.0966 | 0.0821 | 0.0751 | 0.683 | 0.464 | 0.0532 | 0.081 | 0.056 | 0.179 | 0.0725 | 0.0375 | 0.0586 | 0.0476 | 0.143 | 0.166 | 0.111 | 0.0924 | 0.0882 |
| RERF-LC-KJ | 1.11 | 1.07 | 0.857 | 0.472 | 0.219 | 0.796 | 0.686 | 0.475 | 0.321 | 0.222 | 0.742 | 0.833 | 0.276 | 0.266 | 0.248 | 0.47 | 0.514 | 0.33 | 0.255 | 0.219 |
| SK-LU-1 | 0.441 | 0.469 | 0.295 | 0.272 | 0.204 | 0.86 | 0.556 | 0.293 | 0.253 | 0.199 | 0.154 | 0.0796 | 0.0621 | 0.0687 | 0.0526 | 0.999 | 0.63 | 0.28 | 0.27 | 0.19 |
| SK-MES-1 | 0.347 | 0.394 | 0.281 | 0.211 | 0.164 | 1.1 | 1.03 | 0.514 | 0.182 | 0.179 | 0.358 | 0.249 | 0.11 | 0.106 | 0.101 | 0.951 | 0.781 | 0.284 | 0.171 | 0.153 |
| SW 900 | 0.575 | 0.511 | 0.277 | 0.192 | 0.125 | 0.51 | 0.547 | 0.23 | 0.138 | 0.131 | 0.731 | 0.314 | 0.118 | 0.0729 | 0.0968 | 0.455 | 0.437 | 0.242 | 0.139 | 0.168 |
| SW 1573 | 0.459 | 0.207 | 0.169 | 0.103 | 0.0788 | 0.782 | 1.01 | 0.241 | 0.128 | 0.0675 | 0.699 | 0.461 | 0.135 | 0.136 | 0.0753 | 0.819 | 0.93 | 0.164 | 0.11 | 0.0923 |
| UMC-11 | 0.353 | 0.371 | 0.3 | 0.249 | 0.292 | 0.467 | 0.363 | 0.343 | 0.229 | 0.222 | 0.464 | 0.455 | 0.376 | 0.232 | 0.162 | 0.793 | 0.741 | 0.576 | 0.246 | 0.183 |
